{
  "source": "paper PMC12238268",
  "about": "“The immunomodulatory p43 secreted protein of Trichuris whipworm parasites is a lipid carrier that binds signalling lipids and precursors” (Scientific Reports, 2025)",
  "format_in_all_cases": "binding",
  "key": {"p43 (Tm-DLP-1) [1]": {"target": "T1, p43 (Tm-DLP-1) (Trichuris muris, UniProt A0A5S6QYG9)", "T1 construct": "native, purified from adult worm excretory/secretory medium by Ni-NTA (natural His-rich tail) and Superdex 75; signal peptide predicted cleaved between 17 and 18", "T1 sequence (A0A5S6QYG9 entry or part of it)": "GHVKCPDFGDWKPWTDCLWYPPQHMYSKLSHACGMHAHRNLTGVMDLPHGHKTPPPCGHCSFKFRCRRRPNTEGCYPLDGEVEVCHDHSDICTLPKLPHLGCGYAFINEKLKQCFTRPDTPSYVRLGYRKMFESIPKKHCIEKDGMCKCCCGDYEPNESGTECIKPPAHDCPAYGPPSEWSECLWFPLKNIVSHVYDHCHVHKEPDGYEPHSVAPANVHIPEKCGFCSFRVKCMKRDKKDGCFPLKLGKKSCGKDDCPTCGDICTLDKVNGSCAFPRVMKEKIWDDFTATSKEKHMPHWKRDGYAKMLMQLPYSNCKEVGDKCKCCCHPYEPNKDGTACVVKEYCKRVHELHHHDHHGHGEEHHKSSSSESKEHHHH", "test": "fluorescence titration"}, "p43 (Tm-DLP-1) [2]": {"target": "T1, p43 (Tm-DLP-1)", "test": "intrinsic fluorescence enhancement of ligand", "conditions": "PBS pH 7.2"}, "p43 (Tm-DLP-1) [3]": {"target": "T1, p43 (Tm-DLP-1)", "test": "fluorescence enhancement and blue shift of probe", "conditions": "approximately 1 μM DACA; PBS pH 7.2"}},
  "data": [
    {"smiles": "CN(C)c1cccc2c(S(=O)(=O)NCCCCCCCCCCC(=O)O)cccc12", "note": "[DAUDA, 11-((5-dimethylaminonaphthalene-1-sulfonyl)amino)undecanoic]", "values": [
      {"measurement": "Kd", "setting": "p43 (Tm-DLP-1) [1]", "value": 0.35, "unit": "µM"}
    ]},
    {"smiles": "CC\\C=C/C=C/C=C/C=C\\CCCCCCCC(=O)O", "note": "[cis-parinaric acid]", "values": [
      {"measurement": "intrinsic fluorescence enhancement of ligand", "setting": "p43 (Tm-DLP-1) [2]; approximately 4 μM cPnA", "value": "p43 bound cPnA strongly and was displaceable with oleic acid (Fig. 1C)"}
    ]},
    {"smiles": "CCCCCCC(NS(=O)(=O)c1cccc2c(N(C)C)cccc12)C(=O)O", "note": "(stereo not shown) [dansyl aminocaprylic acid]", "values": [
      {"measurement": "fluorescence enhancement and blue shift of probe", "setting": "p43 (Tm-DLP-1) [3]", "value": "essentially the same observations with another fluorescent probe, dansyl aminocaprylic acid (DACA)"}
    ]},
    {"smiles": "CC1=C(/C=C/C(C)=C/C=C/C(C)=C/CO)C(C)(C)CCC1", "note": "[retinol]", "values": [
      {"measurement": "intrinsic fluorescence enhancement of ligand", "setting": "p43 (Tm-DLP-1) [2]; approximately 1 μM retinol", "value": "p43 bound retinol, from which it was displaceable by oleic acid (Fig. 2A)"}
    ]}
  ]
}
